Data on 27 compounds can be found in patent US10344017B2, “Pyrrolcarboxamide derivatives for the inhibition of ERK5” (CANCER RESEARCH TECHNOLOGY LIMITED, priority 2014, dated 2019).

The target in one experiment is T1, ERK5 (Homo sapiens, UniProt Q13164).
T1 construct: made in house
T1 sequence (Q13164 whole entry): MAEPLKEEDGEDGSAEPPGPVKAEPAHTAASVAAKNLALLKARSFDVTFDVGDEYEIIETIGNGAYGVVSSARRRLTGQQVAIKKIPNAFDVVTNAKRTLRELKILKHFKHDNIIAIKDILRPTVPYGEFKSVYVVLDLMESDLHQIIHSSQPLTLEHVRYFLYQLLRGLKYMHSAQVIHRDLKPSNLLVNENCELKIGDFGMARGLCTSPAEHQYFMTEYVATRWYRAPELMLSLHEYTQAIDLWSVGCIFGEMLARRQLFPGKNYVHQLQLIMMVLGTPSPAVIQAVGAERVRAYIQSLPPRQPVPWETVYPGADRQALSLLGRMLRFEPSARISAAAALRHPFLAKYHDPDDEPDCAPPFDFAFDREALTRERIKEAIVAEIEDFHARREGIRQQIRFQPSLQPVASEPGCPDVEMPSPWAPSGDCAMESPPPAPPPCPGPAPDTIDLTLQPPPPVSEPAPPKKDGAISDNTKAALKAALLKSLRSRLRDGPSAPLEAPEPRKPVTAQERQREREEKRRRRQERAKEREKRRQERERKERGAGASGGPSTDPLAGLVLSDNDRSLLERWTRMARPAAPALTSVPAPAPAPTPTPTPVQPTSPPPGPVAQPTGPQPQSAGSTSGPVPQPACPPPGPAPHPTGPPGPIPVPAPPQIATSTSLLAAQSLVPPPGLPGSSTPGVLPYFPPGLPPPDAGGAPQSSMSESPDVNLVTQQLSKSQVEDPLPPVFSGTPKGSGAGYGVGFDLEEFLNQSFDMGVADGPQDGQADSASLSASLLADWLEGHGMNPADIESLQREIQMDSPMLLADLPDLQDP
Description: ERK5 IMAP assay (fluorescence polarisation). Type of experiment: biochemical.
Settings: not given
The method, then:
The assay buffer was prepared using 0.01% Tween®-20 5× stock, supplied as part of IMAP™ FP Progressive Binding System Kit (Molecular Devices R7436) and diluted to 1× using miliQ H2O. 1 μL of a 1M DTT stock was added for every 1 mL of 1× assay buffer to give a final concentration of 1 mM DTT.
ERK5 was expressed and purified at CRT-DL by Leon Pang and Sue Young. Aliquots were stored at −80° C. The ERK5 working solution was used at a […] final dilution in assay buffer. […] For 1 plate, […] of ERK5 stock was added to 2262 μL of 1× assay buffer.
To prepare the IMAP™ binding solution for one plate 20.5 μL of IMAP™ binding reagent stock, 1476 μL of 1× binding buffer A (60%), and 984 μL of binding buffer B (40%) (IMAP™ FP Progressive screening express kit (Molecular Devices R8127) was added to 9819.5 μL of milliQ H2O.
1 μL of inhibitor (in 60:40 H2O/DMSO) or 60:40 H2O/DMSO (for controls and blanks) were dry-spotted into the relevant wells of a 384-well assay plate using the MATRIX PlateMate® Plus. 5 μL of ERK5 working solution was added to test and control wells, and 5 μL of 1× assay buffer added to blanks; 4 μL of ATP/substrate working solution was added to all wells using a Matrix multichannel pipette. The plate was sealed using DMSO resistant clear seal and incubated for 2 h at 37° C. 1 μL of the kinase reaction mixture from the first plate was dry spotted into a second 384-well assay plate using the MATRIX PlateMate® Plus. 9 μL of assay buffer was added, followed by 30 μL of IMAP™ binding solution using a multichannel pipette. The plate was incubated at RT in darkness for 2 h. The assay plate was then read on an Analyst HT plate reader (Molecular Devices) using the settings described below: […]
A general note: Polarisation of emitted light reports the rotation of a fluorescent probe.
Compound `O=C(Nc1ccncc1)c1cc(C(=O)c2c(F)cccc2F)c[nH]1` [Example 121, 4-(2,6-Difluorobenzoyl)-N-(pyridin-4-yl)-1H-pyrrole-2-carboxamide] gave an IC50 of 0.9 µM.

The experiment is the same for the next values; noted with them: average (e.g. geometric mean) where more than one data point; read-out: ERK5 IC50.
For `COc1ccc(Cl)c(C(=O)c2c[nH]c(C(=O)Nc3cnn(CC4CCN(C)CC4)c3)c2)c1F` [Example 68, 4-(6-Chloro-2-fluoro-3-methoxybenzoyl)-N-(1-((1-methylpiperidin-4-yl)methyl)-1H-pyrazol-4-yl)-1H-pyrrole-2-carboxamide], the half-inhibitory concentration (IC50) turned out to be 0.0199 µM. Same read-out and setting: the value for `Cc1cccc(F)c1C(=O)c1c[nH]c(C(=O)Nc2cccnc2)c1` [Example 186, 4-(2-Fluoro-6-methylbenzoyl)-N-(pyridin-3-yl)-1H-pyrrole-2-carboxamide] was 2.57 µM; that for `COc1ccc(Cl)c(C(=O)c2c[nH]c(C(=O)Nc3ccc(CN4CCNCC4)nc3)c2)c1F` [Example 251, 4-(6-Chloro-2-fluoro-3-methoxybenzoyl)-N-(6-(piperazin-1-ylmethyl)pyridin-3-yl)-1H-pyrrole-2-carboxamtde] was 0.0079 µM. On the same count and under the same terms, to `CC(=O)OC1CCN(c2ncc(NC(=O)c3cc(C(=O)c4c(Cl)ccc(Cl)c4F)c[nH]3)cn2)CC1` [Example 22, 1-(5-(4-(3,6-Dichloro-2-fluorobenzoyl)-1H-pyrrole-2-carboxamido)pyrimidin-2-yl)piperidin-4-yl acetate] belongs 9.66 µM; to `COc1cc(NC(=O)c2cc(C(=O)c3c(F)cccc3Cl)c[nH]2)ccn1` [Example 40, 4-(2-Chloro-6-fluorobenzoyl)-N-(2-methoxypyridin-4-yl)-1H-pyrrole-2-carboxamide], 1.83 µM. Still for that read-out and setting: the value for `COc1ccc(Cl)c(C(=O)c2c[nH]c(C(=O)Nc3cnn(C4CCN(CC(F)(F)F)CC4)c3)c2)c1F` [Example 64, 4-(6-Chloro-2-fluoro-3-methoxybenzoyl)-N-(1-(1-(2,2,2-trifluoroethyl)piperidin-4-yl)-1H-pyrazol-4-yl)-1H-pyrrole-2-carboxamide] was 2.99 µM; that for `O=C(Nc1cnn(Cc2ccncc2)c1)c1cc(C(=O)c2c(Cl)ccc(Cl)c2F)c[nH]1` [Example 50, 4-(3,6-Dichloro-2-fluorobenzoyl)-N-(1-(pyridin-4-ylmethyl)-1H-pyrazol-4-yl)-1H-pyrrole-2-carboxamide] was 0.021 µM. For the compound `Cn1cc(NC(=O)c2cc(C(=O)c3c(Cl)ccc(OC4CCOCC4)c3F)c[nH]2)cn1` [Example 268, 4-(6-Chloro-2-fluoro-3-((tetrahydro-2H-pyran-4-yl)oxy)benzoyl)-N-(1-methyl-1H-pyrazol-4-yl)-1H-pyrrole-2-carboxamide], the 50% inhibitory concentration (IC50) amounted to 2.8 µM. Still for that read-out and setting: the value for `O=C(Nc1cncnc1)c1cc(C(=O)c2c(Cl)ccc(Br)c2F)c[nH]1` [Example 182, 4-(3-Bromo-6-chloro-2-fluorobenzoyl)-N-(pyrimidin-5-yl)-1H-pyrrole-2-carboxamide] was 0.606 µM; that for `O=C(Nc1cccnc1)c1cc(C(=O)c2c(Cl)ccc(Br)c2F)c[nH]1` [Example 181, 4-(3-Bromo-6-chloro-2-fluorobenzoyl)-N-(pyridin-3-yl)-1H-pyrrole-2-carboxamide] was 0.0665 µM; that for `Cc1ccc(NC(=O)c2cc(C(=O)c3c(F)cccc3Cl)c[nH]2)c[n+]1[O-]` [Example 118, 5-(4-(2-Chloro-6-fluorobenzoyl)-1H-pyrrole-2-carboxamido)-2-methylpyridine 1-oxide] was 1.31 µM. Same read-out and setting: the value for `Cc1ncccc1NC(=O)c1cc(C(=O)c2c(Cl)ccc(Cl)c2F)c[nH]1` [Example 81, 4-(3,6-Dichloro-2-fluorobenzoyl)-N-(2-methylpyridin-3-yl)-1H-pyrrole-2-carboxamide] was 0.394 µM; that for `CCc1ccncc1NC(=O)c1cc(C(=O)c2c(F)cccc2Cl)c[nH]1` [Example 88, 4-(2-Chloro-6-fluorobenzoyl)-N-(4-ethylpyridin-3-yl)-1H-pyrrole-2-carboxamide] was 2.14 µM; that for `O=C(Nc1cc[nH]c(=O)n1)c1cc(C(=O)c2c(F)cccc2Br)c[nH]1` [Example 147, 4-(2-Bromo-6-fluorobenzoyl)-N-(2-oxo-1,2-dihydropyrimidin-4-yl)-1H-pyrrole-2-carboxamide] was 34.2 µM. With `O=C(NC1CCNCC1)c1cc(C(=O)c2c(F)ccc(F)c2Cl)c[nH]1` [Example 215, 4-(2-Chloro-3,6-difluorobenzoyl)-N-(piperidin-4-yl)-1H-pyrrole-2-carboxamide], the IC50 came out at 0.694 µM. The same measure, in the same setting: to `CCOc1ccncc1NC(=O)c1cc(C(=O)c2c(F)cccc2Cl)c[nH]1` [Example 91, 4-(2-Chloro-6-fluorobenzoyl)-N-(4-ethoxypyridin-3-yl)-1H-pyrrole-2-carboxamide] belongs 2.31 µM; to `CN1CCC(NC(=O)c2cc(C(=O)c3c(Cl)ccc(F)c3F)c[nH]2)CC1` [Example 223, 4-(6-Chloro-2,3-difluorobenzoyl)-N-(1-methylpiperidin-4-yl)-1H-pyrrole-2-carboxamide], 0.2 µM; to `CC(C)(C)OC(=O)N1CCC(NC(=O)c2cc(C(=O)c3c(F)cccc3Br)c[nH]2)CC1` [Example 196, tert-Butyl 4-(4-(2-bromo-6-fluorobenzoyl)-1H-pyrrole-2-carboxamido)piperidine-1-carboxylate], 2.72 µM. On the same count and under the same terms, the value for `Cc1cc(NC(=O)c2cc(C(=O)c3c(Cl)ccc(Cl)c3F)c[nH]2)no1` [Example 58, 4-(3,6-Dichloro-2-fluorobenzoyl)-N-(5-methylisoxazol-3-yl)-1H-pyrrole-2-carboxamide] was 2.48 µM; that for `O=C(Nc1ccc2cn[nH]c2c1)c1cc(C(=O)c2c(F)cccc2Cl)c[nH]1` [Example 156, 4-(2-Chloro-6-fluorobenzoyl)-N-(1H-indazol-6-yl)-1H-pyrrole-2-carboxamide] was 1.54 µM. On the same count and under the same terms, the value for `Cc1ccc(F)c(C(=O)c2c[nH]c(C(=O)Nc3cncnc3)c2)c1F` [Example 218, 4-(2,6-Difluoro-3-methylbenzoyl)-N-(pyrimidin-5-yl)-1H-pyrrole-2-carboxamide] was 0.779 µM; that for `O=C(NC1CCNC1)c1cc(C(=O)c2c(F)cccc2F)c[nH]1` (stereo not drawn) [Example 125, 4-(2,6-Difluorobenzoyl)-N-(pyrrolidin-3-yl)-1H-pyrrole-2-carboxamide] was 31 µM. Take `COc1ccc(F)c(C(=O)c2c[nH]c(C(=O)Nc3cncnc3)c2)c1Cl` [Example 75, 4-(2-chloro-6-fluoro-3-methoxybenzoyl)-N-(pyrimidin-5-yl)-1H-pyrrole-2-carboxamide]: the IC50 worked out at 0.437 µM. Same read-out and setting: to `Cc1ccc(F)c(C(=O)c2c[nH]c(C(=O)Nc3cccnc3)c2)c1Cl` [Example 175, 4-(2-Chloro-6-fluoro-3-methylbenzoyl)-N-(pyridin-3-yl)-1H-pyrrole-2-carboxamide] belongs 0.649 µM.

In the case of `O=C(Nc1cccnc1)c1cc(C(=O)c2c(Cl)ccc(OC(CCl)CCl)c2F)c[nH]1` [Example 271, 4-(6-Chloro-3-((1,3-dichloropropan-2-yl)oxy)-2-fluorobenzoyl)-N-(pyridin-3-yl)-1H-pyrrole-2-carboxamide], the IC50 was determined as 1.26 µM. Same read-out and setting: to `CN1CCC(NC(=O)c2cc(C(=O)c3c(F)ccc(F)c3F)c[nH]2)CC1` [Example 209, N-(1-Methylpipendin-4-yl)-4-(2,3,6-trifluorobenzoyl)-1H-pyrrole-2-carboxamide] belongs 0.569 µM.

As usually defined, the IC50 is the midpoint of a concentration-inhibition curve.
